“And” between values parts separate entries of the source, which are not always exact repeats. Identical values can stand only once.
Tests used:
[1] = tested on: SNU-16; test: Viability assay (Cell Titer-Glo); format: cell-based, human
Procedure: (§1) Cytotoxicity effects of the ADC on the cancer cell lines were measured by cell viability assays. Cells were seeded in a volume of 90 μL in 96-well plates the day before treatment. Test compounds (ADCs or free payloads) were formulated at 10-fold the starting concentration in cell culture medium. Test compounds were serial diluted (1:4) and 10 μL of each dilution was added to the cells in triplicates. Plates were cultured at 37° C. in a CO2 incubator for six days. For cell viability measurement, Cell Titer-Glo® reagent (Promega™ Corp, Madison, WI) was added to each well, and plates processed according to the manufacturer's instructions. Luminescence signals were measured using a Varioskan plate reader (Thermo Fisher). Luminescence readings were converted to % viability relative to untreated cells. Data was fitted with non-linear regression analysis, using log (inhibitor) vs. response, variable slope, 4-parameter fit equation using GraphPad Prism. […] Geometric mean values of IC50s derived from multiple experiments were calculated.
(§2) Cytotoxicity effects of the ADC on the cancer cell lines were measured by cell viability assays. […] Luminescence signals were measured using a Varioskan plate reader (Thermo Fisher). Luminescence readings were converted to % viability relative to untreated cells. […] Geometric mean values of IC50s derived from multiple experiments were calculated.

[2] = tested on: SK-CO-1; test: Viability assay (Cell Titer-Glo); format: cell-based; details: Homo sapiens
Procedure: as §1, §2

[3] = tested on: MDA-MB-468; test: Viability assay (Cell Titer-Glo); format: cell-based; details: Homo sapiens, Table 2
Procedure: Cytotoxicity effects of the ADC on the cancer cell lines were measured by cell viability assays. Cells were seeded in a volume of 90 μL in 96-well plates the day before treatment. Test compounds (ADCs or free payloads) were formulated at 10-fold the starting concentration in cell culture medium. Test compounds were serial diluted (1:4) and 10 μL of each dilution was added to the cells in triplicates. Plates were cultured at 37° C. in a CO2 incubator for six days. For cell viability measurement, Cell Titer-Glo® reagent (Promega™ Corp, Madison, WI) was added to each well, and plates processed according to the manufacturer's instructions. Luminescence signals were measured using a Varioskan plate reader (Thermo Fisher). Luminescence readings were converted to % viability relative to untreated cells. Data was fitted with non-linear regression analysis, using log (inhibitor) vs. response, variable slope, 4-parameter fit equation using GraphPad Prism. Data is shown as % relative cell viability vs. molar compound concentration, error bars indicating standard deviation (SD) of triplicates. Geometric mean values of IC50s derived from multiple experiments were calculated.

[4] = tested on: MKN-45; test: Viability assay (Cell Titer-Glo); format: cell-based; details: Homo sapiens
Procedure: as §1, §2

[5] = tested on: MDA-MB-231; test: Viability assay (Cell Titer-Glo); format: cell-based; details: Homo sapiens, MDA-MB-231, 144 h; Table 2; six days; geometric mean; N ≥ 3; CEACAM5 Negative
Procedure: as §1, §2

[6] = tested on: LS174T; test: Viability assay (Cell Titer-Glo); format: cell-based; details: Homo sapiens
Procedure: as §1, §2

[7] = tested on: MKN45 cells; test: Internalization assay using Cell Discoverer (pHrodo labeled antibodies); format: cell-based, human
Source text: A relevant characteristic of an ADC is its internalization into a target-expressing cell and lysosomes, and thus internalization is a relevant property of antibodies to be used as part of ADCs. Antibody internalization rate into the late endosome and lysosome (low pH vesicles) can be monitored by directly labeling the antibodies with a pH-sensitive dye (pHrodo) which emits strong fluorescence at a pH lower than 6.0 upon excitation. This fluorescence can be imaged in the Cell-Discoverer7 (Zeiss) and internalization rate can be calculated.
To analyze the internalization rates of several antibodies, MKN45 cells were seeded in a 96 well, dark, flat clear bottom plate (Cellvis) at 25,000 cells/well. Cells were cultivated over night with 100 μl/well of RMPI-1640+10% FBS (Thermo). Cell media was removed, and cells were stained with 100 μl of 10 μg/ml Hoechst dye diluted in PBS×1 for 15 min at room temperature (RT) in the dark. Cells were then washed twice with PBS×1. […]
Internalization of pHrodo labeled antibodies into the late endosomes and lysosomes of cells was imaged by Cell-Discoverer7 (Zeiss) using fluorescence at excitation of 567 nm and emission detector of 592/25 nm. […]
Fluorescence of each well was recorded every 20 min for 20 h. Analysis of Sum Fluorescence Intensity per cell (SFI) was calculated by the Zen Software (ZEN3.1) and Excel analysis of linear regression.

[8] = tested on: CEACAM5 from Macaca fascicularis; details: background; cited from earlier work
[9] = background; cited from earlier work

Chain of CEACAM5 from Macaca fascicularis (as listed by the source): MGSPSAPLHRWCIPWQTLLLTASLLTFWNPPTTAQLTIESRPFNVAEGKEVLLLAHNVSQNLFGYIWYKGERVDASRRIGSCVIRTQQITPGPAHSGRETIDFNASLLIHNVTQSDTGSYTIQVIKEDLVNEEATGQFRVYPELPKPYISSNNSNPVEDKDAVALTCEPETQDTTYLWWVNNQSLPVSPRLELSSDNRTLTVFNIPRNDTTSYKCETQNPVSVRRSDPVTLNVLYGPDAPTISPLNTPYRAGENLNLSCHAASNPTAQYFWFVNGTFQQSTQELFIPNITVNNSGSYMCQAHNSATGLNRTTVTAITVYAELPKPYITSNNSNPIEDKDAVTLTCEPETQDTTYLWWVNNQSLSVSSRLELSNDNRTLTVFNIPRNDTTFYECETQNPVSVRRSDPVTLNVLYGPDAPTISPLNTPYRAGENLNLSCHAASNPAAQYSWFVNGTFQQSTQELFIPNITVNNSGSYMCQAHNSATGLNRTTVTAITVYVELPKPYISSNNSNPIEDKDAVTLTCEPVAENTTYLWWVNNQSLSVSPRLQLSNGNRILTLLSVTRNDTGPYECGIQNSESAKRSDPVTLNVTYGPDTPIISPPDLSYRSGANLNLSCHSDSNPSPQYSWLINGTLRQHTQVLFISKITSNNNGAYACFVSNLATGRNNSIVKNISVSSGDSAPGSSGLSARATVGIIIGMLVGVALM

With `CC[C@@]1(O)C(=O)OCc2c1cc1n(c2=O)Cc2c-1nc1cc(F)c(C)c3c1c2[C@@H](N)CC3` [PAYLOAD, (1S,9S)-1-Amino-9-ethyl-5-fluoro-1,2,3,9,12,15-hexahydro-9-hydroxy-4-methyl-10H,13H-benzo(de)pyrano(3′,4′:6,7)indolizino(1,2-b)quinoline-10,13-dione, reference compound] the IC50 ([1]; Homo sapiens, SNU-16, 144 h, Table 2, six days, geometric mean, N ≥ 3, CEACAM5 Positive) was 0.44 nM, the “SNU-16 maximal effect compared to untreated controls” value ([1]; Table 3, at the highest tested compound concentration) was “(−99%)” and the IC50 ([2]; SK-CO-1, 144 h, Table 2, six days, geometric mean, N ≥ 4, CEACAM5 Positive) was 0.25 nM. For the same molecule, the Emax ([2]; SK-CO-1, Table 2, at the highest tested compound concentration, read-out: SK-CO-1 maximal effect compared to untreated controls) was -99%, the IC50 ([3]; MDA-MB-468, 144 h, six days, geometric mean, N ≥ 2, CEACAM5 Negative) was 0.21 nM and the Emax ([3]; MDA-MB-468, at the highest tested compound concentration, read-out: MDA-MB-468 maximal effect compared to untreated controls) was -99%. The IC50 ([4]; MKN-45, 144 h, Table 2, six days, geometric mean, N ≥ 3, CEACAM5 Positive) was 0.89 nM, the Emax ([4]; MKN-45, Table 2, at the highest tested compound concentration, read-out: MKN-45 maximal effect compared to untreated controls) was -96% and the IC50 [5] was 0.93 nM. It also gave an IC50 ([6]; 144 h, Table 2, six days, geometric mean, N ≥ 3, CEACAM5 Positive) of 0.53 nM and an Emax ([6]; Table 2, at the highest tested compound concentration, read-out: LS174T maximal effect compared to untreated controls) of -88%.
For “hmn-14: known anti-CEACAM5 antibody as in labetuzumab govitecan; HC SEQ ID NO: 27, LC SEQ ID NO: 28 [reference compound]”, the average binding rate ([7]; average of the three slopes of the linear part of the curve) is given as 22268±3060, the “Slope of Curve” value ([7]; linear part (700 to 1200 minutes) of fluorescence intensity per cell, 100 nM pHrodo labeled antibody, single wells) is given as 23701 and 24350 and 18754 and the “cross-reactivity with CEACAM5 from Macaca fascicularis” value [8] is given as “not cross-reacting with CEACAM5 from Macaca fascicularis”.
For Labetuzumab govitecan, the “stability of the linker structure after parenteral application” value [9] is listed as “significant instability of the linker structure”.
